In US20090197926A1, “BENZIMIDAZOLES AND THEIR USE FOR THE TREATMENT OF DIABETES” (priority 2006, published 2009):

Molecular target: T1, human DGAT1 (Homo sapiens, UniProt O75907)
T1 construct: made in house; host or cells: Sf9 insect cells (recombinant baculovirus); membrane fraction
T1 sequence (O75907 1-488): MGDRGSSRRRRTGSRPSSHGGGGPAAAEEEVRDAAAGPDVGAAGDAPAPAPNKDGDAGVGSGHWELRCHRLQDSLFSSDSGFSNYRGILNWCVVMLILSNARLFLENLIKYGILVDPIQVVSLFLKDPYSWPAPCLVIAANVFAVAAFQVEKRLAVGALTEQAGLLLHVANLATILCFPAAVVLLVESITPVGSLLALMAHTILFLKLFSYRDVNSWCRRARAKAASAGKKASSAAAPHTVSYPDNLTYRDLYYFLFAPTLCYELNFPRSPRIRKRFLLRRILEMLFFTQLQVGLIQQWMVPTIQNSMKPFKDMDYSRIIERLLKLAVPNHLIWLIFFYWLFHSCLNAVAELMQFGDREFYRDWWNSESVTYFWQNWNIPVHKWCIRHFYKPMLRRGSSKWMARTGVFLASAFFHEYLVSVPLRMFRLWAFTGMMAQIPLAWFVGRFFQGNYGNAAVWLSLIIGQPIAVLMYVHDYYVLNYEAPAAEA
Assay: Human Enzyme Assay (DGAT1 inhibition)
Assay type: biochemical
Conditions: human DGAT1 expressed in insect cell (sf9) membranes; 14C oleoyl coenzyme A, 1,2 dioleoyl-sn-glycerol, room temperature 30 minutes
Protocol: The in vitro assay to identify DGAT1 inhibitors uses human DGAT1 expressed in insect cell membranes as the enzyme source (Proc. Natl. Acad. Sci. 1998, 95, 13018-13023). Briefly, sf9 cells were infected with recombinant baculovirus containing human DGAT1 coding sequences and harvested after 48 h. Cells were lysed by sonication and membranes isolated by centrifuging at 28000 rpm for 1 h at 4° C. on a 41% sucrose gradient. The membrane fraction at the interphase was collected, washed, and stored in liquid nitrogen.
DGAT1 activity was assayed by a modification of the method described by Coleman (Methods in Enzymology 1992, 209, 98-102). Compound at 1-10 μM was incubated with 0.4 μg membrane protein, 5 mM MgCl2, and 100 μM 1,2 dioleoyl-sn-glycerol in a total assay volume of 200 μl in plastic tubes. The reaction was started by adding ^14C oleoyl coenzyme A (30 μM final concentration) and incubated at room temperature for 30 minutes. The reaction was stopped by adding 1.5 mL 2-propanol:heptane:water (80:20:2). Radioactive triolein product was separated into the organic phase by adding 1 mL heptane and 0.5 mL 0.1 M carbonate buffer pH 9.5. DGAT1 activity was quantified by counting aliquots of the upper heptane layer by liquid scintillography.

IC50	Compound
11 nM	O=C(O)C[C@H]1CC[C@H](c2ccc3[nH]c(-c4nnc(Nc5cc(F)c(F)cc5F)o4)nc3c2)CC1 [Example 1, trans-2-[4-[2-[5-[(2,4,5-Trifluorophenyl)amino]-1,3,4-oxadiazol-2-yl]-1H-benzoimidazol-5-yl]cyclohexyl]acetic Acid]
10 nM	O=C(O)C[C@H]1CC[C@H](c2ccc3[nH]c(-c4nnc(Nc5ccc(F)c(F)c5)o4)nc3c2)CC1 [Example 2, trans-2-[4-[2-[5-[(3,4-Difluorophenyl)amino]-1,3,4-oxadiazol-2-yl]-1H-benzoimidazol-5-yl]cyclohexyl]acetic Acid]
6 nM	O=C(O)C[C@H]1CC[C@H](c2ccc3[nH]c(-c4nnc(Nc5cccc(OCc6ccccc6)c5)o4)nc3c2)CC1 [Example 3, {trans-4-[2-(5-{[3-(Benzyloxy)phenyl]amino}-1,3,4-oxadiazol-2-yl)-1H-benzimidazol-5-yl]cyclohexyl}acetic Acid]
19 nM	N#Cc1ccc(Nc2nnc(-c3nc4cc([C@H]5CC[C@H](CC(=O)O)CC5)ccc4[nH]3)o2)cc1 [Example 4, [trans-4-(2-{5-[(4-Cyanophenyl)amino]-1,3,4-oxadiazol-2-yl}-1H-benzimidazol-5-yl)cyclohexyl]acetic Acid]
54 nM	O=C(O)C[C@H]1CC[C@H](c2ccc3[nH]c(-c4nnc(Nc5ccc6c(c5)OCCO6)o4)nc3c2)CC1 [Example 6, (4-{2-[5-(2,3-Dihydrobenzo[1,4]dioxin-6-ylamino)[1,3,4]oxadiazol-2-yl]-1H-benzimidazol-5-yl}cyclohexyl)acetic Acid]
2 nM	O=C(O)C[C@H]1CC[C@H](c2ccc3[nH]c(-c4nnc(Nc5ccc(Cl)cc5)o4)nc3c2)CC1 [Example 7, (4-{2-[5-(4-Chlorophenylamino)[1,3,4]oxadiazol-2-yl]-1H-benzimidazol-5-yl}-cyclohexyl)acetic Acid]
8 nM	O=C(O)C[C@H]1CC[C@H](c2ccc3[nH]c(-c4nnc(Nc5cccc(Cl)c5)o4)nc3c2)CC1 [Example 8, (4-{2-[5-(3-Chlorophenylamino)[1,3,4]oxadiazol-2-yl]-1H-benzimidazol-5-yl}-cyclohexyl)acetic Acid]
10 nM	O=C(O)C[C@H]1CC[C@H](c2ccc3[nH]c(-c4nnc(Nc5ccc(F)cc5)o4)nc3c2)CC1 [Example 10, (4-{2-[5-(4-Fluorophenylamino)[1,3,4]oxadiazol-2-yl]-1H-benzimidazol-5-yl}cyclohexyl)acetic Acid]
43 nM	O=C(O)[C@H]1CC[C@H](Oc2ccc3nc(-c4nnc(Nc5cc(F)c(F)cc5F)o4)[nH]c3c2)CC1 [Example 14, trans-4-[[2-[5-[(2,4,5-Trifluorophenyl)amino]-1,3,4-oxadiazol-2-yl]-3H-benzoimidazol-5-yl]oxy]cyclohexane-1-carboxylic Acid]
19 nM	O=C(O)[C@H]1CC[C@@H](Oc2ccc3nc(-c4nnc(Nc5ccc(F)cc5)o4)[nH]c3c2F)CC1 [Example 15, cis-4-{4-Fluoro-2-[5-(4-fluorophenylamino)-1,3,4-oxadiazol-2-yl]-1H-benzimidazol-5-yloxy}cyclohexanecarboxylic Acid]
23 nM	O=C(O)[C@H]1CC[C@H](Oc2ccc3nc(-c4nnc(Nc5ccc(F)cc5)o4)[nH]c3c2F)CC1 [Example 16, trans-4-{4-Fluoro-2-[5-(4-fluorophenylamino)-1,3,4-oxadiazol-2-yl]-1H-benzimidazol-5-yloxy}cyclohexanecarboxylic acid]
13 nM	O=C(O)[C@H]1CC[C@@H](Oc2ccc3nc(-c4nnc(Nc5cc(F)c(F)cc5F)o4)[nH]c3c2F)CC1 [Example 17, cis-4-[[4-fluoro-2-[5-[(2,4,5-trifluorophenyl)amino]-1,3,4-oxadiazol-2-yl]-3H-benzoimidazol-5-yl]oxy]cyclohexane-1-carboxylic Acid]
16 nM	O=C(O)[C@H]1CC[C@H](Oc2ccc3nc(-c4nnc(Nc5cc(F)c(F)cc5F)o4)[nH]c3c2F)CC1 [Example 18, trans-4-[[4-fluoro-2-[5-[(2,4,5-trifluorophenyl)amino]-1,3,4-oxadiazol-2-yl]-3H-benzoimidazol-5-yl]oxy]cyclohexane-1-carboxylic Acid]
3 nM	(4-{2-[5-(3,4,5-Trifluorophenylamino)[1,3,4]oxadiazol-2-yl]-1H-benzimidazol-5-yl}cyclohexyl)acetic Acid [Example 11]
